Assay results: ChEMBL document CHEMBL1177754, “Onionin A from Allium cepa inhibits macrophage activation” (J Nat Prod, 2010)
Active and inactive are the calls of the source. No cut-off for these calls is given here.

System: Macrophage
Test: Inhibition of CD163 expression in human monocyte-derived macrophages at 30 uM for 24 hrs treated before IL10 challenge for 2 days by cell-ELISA
Format: functional, cell-based

SMILES: C/C=C/[C@H]1[C@H](C)[C@@H](C)[C@@H]([SH+][O-])[S+]1[O-] (stereo partly specified)
- Activity: Active
